Source: patent publication US10597388B2, “Pyridazinone herbicides” (FMC CORPORATION, priority 2014, dated 2020)

Legend:
Assay in all cases: Test D controlled growth environment herbicide test, pre- and postemergence
Assay type in all cases: in vivo
[1] = test system: blackgrass (Alopecurus myosuroides)
Procedure, shortened: (§1)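 Pre-emergence: seeds sown in silt loam soil were sprayed with compound in a non-phytotoxic solvent mix containing surfactant. Post-emergence: plants at 2 to 18 cm (1- to 4-leaf stage) in peat moss/vermiculite medium got the same formulation. Visual 0–100 rating versus controls after 14 to 21 d.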

kochia (Kochia scoparia) = test system: kochia (Kochia scoparia)
Procedure, shortened: as §1

[2] = test system: galium (catchweed bedstraw, Galium aparine)
Procedure, shortened: as §1

[3] = test system: chamomile (scentless chamomile, Matricaria inodora)
Procedure, shortened: as §1

[4] = test system: field violet (Viola arvensis)
Procedure, shortened: as §1

[5] = test system: bromegrass, downy (downy bromegrass, Bromus tectorum)
Procedure, shortened: as §1

[6] = test system: buckwheat, wild (wild buckwheat, Polygonum convolvulus)
Procedure, shortened: as §1

[7] = test system: speedwell (bird's-eye speedwell, Veronica persica)
Procedure, shortened: as §1

[8] = test system: lambsquarters (Chenopodium album)
Procedure, shortened: as §1

[9] = test system: oat, wild (wild oat, Avena fatua)
Procedure, shortened: as §1

[10] = test system: pigweed (Amaranthus retroflexus)
Procedure, shortened: as §1

[11] = test system: oilseed rape (Brassica napus)
Procedure, shortened: as §1

[12] = test system: Russian thistle (Salsola kali)
Procedure, shortened: as §1

[13] = Postemergence, 31 g ai/ha, scale 0 to 100 (0 no effect, 100 complete control)
[14] = Postemergence, 125 g ai/ha, visual rating on scale 0 (no effect) to 100 (complete control), 14 to 21 d
[15] = Postemergence, 250 g ai/ha, scale 0 to 100 (0 no effect, 100 complete control)
[16] = Preemergence, 62 g ai/ha, scale 0 to 100 (0 no effect, 100 complete control)
[17] = Preemergence, 125 g ai/ha, scale 0 to 100 (0 no effect, 100 complete control)
[18] = Preemergence, 250 g ai/ha, scale 0 to 100 (0 no effect, 100 complete control)
[19] = postemergence, 62 g ai/ha, scale 0 to 100, 0 no effect, 100 complete control

CC(=O)Oc1c(C)nn(C)c(=O)c1-c1c(C)sc2c(C)cc(C)cc12 [Compound 27]
0: Plant response rating (scale of 0 to 100), Kochia (kochia (Kochia scoparia); Preemergence, 31 g ai/ha) | Plant response rating (scale of 0 to 100), Oilseed Rape ([11]; Preemergence, 31 g ai/ha) | Plant response rating, Oilseed Rape [11, 16] | Plant response rating, Oilseed Rape [11, 17] | Plant response rating (scale of 0 to 100), Russian Thistle ([12]; Preemergence, 31 g ai/ha)
15: Bromegrass, Downy plant response rating [5, 13]
75: Blackgrass plant response rating [1, 13] | Plant response rating, Kochia (kochia (Kochia scoparia); [15]) | Field Violet plant response rating [4, 13] | Plant response rating, Field Violet [4, 14] | Plant response rating (scale of 0 to 100), Speedwell ([7]; Preemergence, 31 g ai/ha) | Oat, Wild plant response rating [9, 13] | Pigweed plant response rating [10, 13] | Plant response rating, Russian Thistle [12, 18] | Plant response rating, Russian Thistle [12, 19]
100: Blackgrass plant response rating [1, 18] | Galium plant response rating [2, 13] | Plant response rating, Galium [2, 14] | Plant response rating, Galium [2, 15] | Plant response rating, Galium [2, 18] | Plant response rating, Galium [2, 19] | Plant response rating, Chamomile [3, 15] | Plant response rating (scale of 0 to 100), Chamomile ([3]; Preemergence, 31 g ai/ha) | Plant response rating, Chamomile [3, 16] | Plant response rating, Chamomile [3, 17] | Plant response rating, Chamomile [3, 18] | Buckwheat, Wild plant response rating [6, 13] | Plant response rating, Buckwheat, Wild [6, 14] | Plant response rating, Buckwheat, Wild [6, 15] | Plant response rating, Buckwheat, Wild [6, 19] | Plant response rating, Speedwell [7, 14] | Plant response rating, Speedwell [7, 15] | Plant response rating, Speedwell [7, 16] | Plant response rating, Speedwell [7, 17] | Plant response rating, Speedwell [7, 18] | Plant response rating (scale of 0 to 100), Lambsquarters ([8]; Preemergence, 31 g ai/ha) | Plant response rating, Lambsquarters [8, 16] | Plant response rating, Lambsquarters [8, 17] | Plant response rating, Lambsquarters [8, 18] | Plant response rating (scale of 0 to 100), Pigweed ([10]; Preemergence, 31 g ai/ha) | Plant response rating, Pigweed [10, 16] | Plant response rating, Pigweed [10, 17] | Plant response rating, Pigweed [10, 18]
30: Plant response rating, Kochia (kochia (Kochia scoparia); [17]) | Plant response rating, Buckwheat, Wild [6, 16]
70: Plant response rating, Galium [2, 16] | Plant response rating, Field Violet [4, 19] | Plant response rating, Bromegrass, Downy [5, 15] | Plant response rating, Speedwell [7, 19] | Plant response rating, Oilseed Rape [11, 14] | Plant response rating, Russian Thistle [12, 14] | Plant response rating, Russian Thistle [12, 15]
98: Plant response rating, Oat, Wild [9, 15]
90: Plant response rating, Blackgrass [1, 14] | Plant response rating, Blackgrass [1, 15] | Plant response rating, Blackgrass [1, 16] | Plant response rating, Chamomile [3, 19] | Plant response rating, Field Violet [4, 16] | Plant response rating, Oat, Wild [9, 14] | Plant response rating, Oat, Wild [9, 17]
25: Plant response rating, Bromegrass, Downy [5, 19] | Plant response rating (scale of 0 to 100), Buckwheat, Wild ([6]; Preemergence, 31 g ai/ha)
65: Plant response rating, Oilseed Rape [11, 19] | Russian Thistle plant response rating [12, 13] | Plant response rating, Russian Thistle [12, 17]
20: Plant response rating, Kochia (kochia (Kochia scoparia); [16])
60: Plant response rating, Kochia (kochia (Kochia scoparia); [18]) | Plant response rating (scale of 0 to 100), Galium ([2]; Preemergence, 31 g ai/ha)
85: Plant response rating (scale of 0 to 100), Blackgrass ([1]; Preemergence, 31 g ai/ha) | Plant response rating, Galium [2, 17] | Plant response rating, Field Violet [4, 15] | Plant response rating, Bromegrass, Downy [5, 17] | Plant response rating, Bromegrass, Downy [5, 18] | Plant response rating, Lambsquarters [8, 14] | Plant response rating, Lambsquarters [8, 15] | Plant response rating, Lambsquarters [8, 19] | Plant response rating (scale of 0 to 100), Oat, Wild ([9]; Preemergence, 31 g ai/ha) | Plant response rating, Oat, Wild [9, 16] | Plant response rating, Oat, Wild [9, 19] | Plant response rating, Pigweed [10, 19] | Plant response rating, Oilseed Rape [11, 15]
10: Plant response rating, Russian Thistle [12, 16]
80: Plant response rating, Blackgrass [1, 19] | Chamomile plant response rating [3, 13] | Plant response rating (scale of 0 to 100), Field Violet ([4]; Preemergence, 31 g ai/ha) | Plant response rating, Buckwheat, Wild [6, 18] | Lambsquarters plant response rating [8, 13]
45: Kochia plant response rating (kochia (Kochia scoparia); [13]) | Plant response rating, Buckwheat, Wild [6, 17]
95: Plant response rating, Blackgrass [1, 17] | Plant response rating, Chamomile [3, 14] | Plant response rating, Field Violet [4, 17] | Plant response rating, Field Violet [4, 18] | Plant response rating, Oat, Wild [9, 18] | Plant response rating, Pigweed [10, 14] | Plant response rating, Pigweed [10, 15]
55: Plant response rating, Kochia (kochia (Kochia scoparia); [14]) | Plant response rating, Kochia (kochia (Kochia scoparia); [19]) | Plant response rating, Bromegrass, Downy [5, 14] | Plant response rating, Bromegrass, Downy [5, 16] | Oilseed Rape plant response rating [11, 13]
35: Plant response rating (scale of 0 to 100), Bromegrass, Downy ([5]; Preemergence, 31 g ai/ha) | Speedwell plant response rating [7, 13] | Plant response rating, Oilseed Rape [11, 18]
